Organism: Rattus norvegicus
Assay: Open TG-GATES - Regimen: Daily Repeat
Type: toxicity, organism-based, Sprague-Dawley
Design: regimen Daily Repeat, gender Male, age 6 weeks
Settings: in vivo, po, 300 mg/kg, route gavage, dose level Middle; for APTT / Bas / Eos / Fbg / Hb / Ht / Lym / MCH / MCHC / MCV / Mono / Neu / PT / Plat / RBC / Ret / WBC: tissue Blood; for KIDNEY_L / KIDNEY_R / KIDNEY_TOTAL: tissue Kidney; for LIVER: tissue Liver; for A/G / ALP / ALT / AST / BUN / CRE / Ca / Cl / DBIL / GLC / IP / K / LDH / Na / PL / RALB / TBIL / TC / TG / TP / gamma-GTP: tissue Plasma

For `COc1ccc(Cl)cc1C(=O)NCCc1ccc(S(=O)(=O)NC(=O)NC2CCCCC2)cc1` [GLYBURIDE], the TERMINAL_BW (72 h, time 3 day) was 227.7 g, the APTT (72 h, time 3 day) was 19.4 s and the Bas (72 h, time 3 day) was 0%. It also gave an Eos (72 h, time 3 day) of 1%, a Fbg (72 h, time 3 day) of 222.4 mg/dL and a Hb (72 h, time 3 day) of 13.3 g/dL. The Ht (72 h, time 3 day) was 39.4%, the Lym (72 h, time 3 day) was 79.6% and the MCH (72 h, time 3 day) was 21.3 pg. It also gave an MCHC (72 h, time 3 day) of 33.7%, an MCV (72 h, time 3 day) of 63.2 fL and a Mono (72 h, time 3 day) of 2.8%. It also gave a Neu (72 h, time 3 day) of 16.4%, a PT (72 h, time 3 day) of 12.4 s and a Plat (72 h, time 3 day) of 120.5 x10_4/uL. The RBC (72 h, time 3 day) was 624 x10_4/ul, the Ret (72 h, time 3 day) was 5.4% and the WBC (72 h, time 3 day) was 97.9 x10_2/uL. For the same molecule, the KIDNEY_L (72 h, time 3 day) was 1 g, the KIDNEY_R (72 h, time 3 day) was 1 g and the KIDNEY_TOTAL (72 h, time 3 day) was 2.1 g. It also gave an LIVER (72 h, time 3 day) of 10.5 g, an A/G (72 h, time 3 day) of 1.5 and an ALP (72 h, time 3 day) of 912.2 IU/L. For the same molecule, the ALT (72 h, time 3 day) was 40.4 IU/L, the AST (72 h, time 3 day) was 65.4 IU/L and the BUN (72 h, time 3 day) was 14.2 mg/dL. It also gave a CRE (72 h, time 3 day) of 0.4 mg/dL, a Ca (72 h, time 3 day) of 10.7 mg/dL and a Cl (72 h, time 3 day) of 103 meq/L. For the same molecule, the DBIL (72 h, time 3 day) was 0.088 mg/dL, the GLC (72 h, time 3 day) was 194.6 mg/dL and the IP (72 h, time 3 day) was 7.1 mg/dL. The K (72 h, time 3 day) was 3.8 meq/L, the LDH (72 h, time 3 day) was 190.4 IU/L and the Na (72 h, time 3 day) was 140.6 meq/L. It also gave a PL (72 h, time 3 day) of 135.6 mg/dL, an RALB (72 h, time 3 day) of 3.3 g/dL and a TBIL (72 h, time 3 day) of 0.1 mg/dL. For the same molecule, the TC (72 h, time 3 day) was 72 mg/dL, the TG (72 h, time 3 day) was 71.4 mg/dL and the TP (72 h, time 3 day) was 5.4 g/dL. The gamma-GTP (72 h, time 3 day) was 0.6 IU/L, the TERMINAL_BW ([…], time 7 day) was 262.8 g and the TERMINAL_BW ([…], time 14 day) was 322.5 g. For the same molecule, the TERMINAL_BW ([…], time 28 day) was 400.8 g, the APTT ([…], time 7 day) was 20.6 s and the Bas ([…], time 7 day) was 0%. For the same molecule, the Eos ([…], time 7 day) was 1%, the Fbg ([…], time 7 day) was 220.6 mg/dL and the Hb ([…], time 7 day) was 13.6 g/dL. For the same molecule, the Ht ([…], time 7 day) was 40%, the Lym ([…], time 7 day) was 78.4% and the MCH ([…], time 7 day) was 20.6 pg. It also gave an MCHC ([…], time 7 day) of 34%, an MCV ([…], time 7 day) of 60.5 fL and a Mono ([…], time 7 day) of 2.4%. The Neu ([…], time 7 day) was 17.8%, the PT ([…], time 7 day) was 12.5 s and the Plat ([…], time 7 day) was 128.7 x10_4/uL. For the same molecule, the RBC ([…], time 7 day) was 661.2 x10_4/ul, the Ret ([…], time 7 day) was 5.2% and the WBC ([…], time 7 day) was 99.5 x10_2/uL. The APTT ([…], time 14 day) was 21.4 s, the Bas ([…], time 14 day) was 0% and the Eos ([…], time 14 day) was 1%. For the same molecule, the Fbg ([…], time 14 day) was 226.6 mg/dL, the Hb ([…], time 14 day) was 14.1 g/dL and the Ht ([…], time 14 day) was 41.1%. It also gave a Lym ([…], time 14 day) of 81.2%, an MCH ([…], time 14 day) of 20.5 pg and an MCHC ([…], time 14 day) of 34.4%. The MCV ([…], time 14 day) was 59.6 fL, the Mono ([…], time 14 day) was 3.2% and the Neu ([…], time 14 day) was 13.8%. For the same molecule, the PT ([…], time 14 day) was 12.3 s, the Plat ([…], time 14 day) was 124.7 x10_4/uL and the RBC ([…], time 14 day) was 689.4 x10_4/ul. For the same molecule, the Ret ([…], time 14 day) was 4.5%, the WBC ([…], time 14 day) was 105.4 x10_2/uL and the APTT ([…], time 28 day) was 21.1 s. It also gave a Bas ([…], time 28 day) of 0%, an Eos ([…], time 28 day) of 1% and a Fbg ([…], time 28 day) of 217.4 mg/dL. It also gave a Hb ([…], time 28 day) of 15 g/dL, a Ht ([…], time 28 day) of 42.8% and a Lym ([…], time 28 day) of 81.6%. For the same molecule, the MCH ([…], time 28 day) was 19.6 pg, the MCHC ([…], time 28 day) was 34.9% and the MCV ([…], time 28 day) was 56.1 fL. It also gave a Mono ([…], time 28 day) of 2.2%, a Neu ([…], time 28 day) of 14.8% and a PT ([…], time 28 day) of 12.5 s. For the same molecule, the Plat ([…], time 28 day) was 110.1 x10_4/uL, the RBC ([…], time 28 day) was 762.8 x10_4/ul and the Ret ([…], time 28 day) was 2.6%. For the same molecule, the WBC ([…], time 28 day) was 109.6 x10_2/uL, the KIDNEY_L ([…], time 7 day) was 1.1 g and the KIDNEY_R ([…], time 7 day) was 1.1 g. For the same molecule, the KIDNEY_TOTAL ([…], time 7 day) was 2.2 g, the KIDNEY_L ([…], time 14 day) was 1.2 g and the KIDNEY_R ([…], time 14 day) was 1.2 g. The KIDNEY_TOTAL ([…], time 14 day) was 2.5 g, the KIDNEY_L ([…], time 28 day) was 1.4 g and the KIDNEY_R ([…], time 28 day) was 1.3 g. For the same molecule, the KIDNEY_TOTAL ([…], time 28 day) was 2.7 g, the LIVER ([…], time 7 day) was 12.1 g and the LIVER ([…], time 14 day) was 14 g. The LIVER ([…], time 28 day) was 16.8 g, the A/G ([…], time 7 day) was 1.5 and the ALP ([…], time 7 day) was 861.6 IU/L. It also gave an ALT ([…], time 7 day) of 33.4 IU/L, an AST ([…], time 7 day) of 59.2 IU/L and a BUN ([…], time 7 day) of 14.6 mg/dL. It also gave a CRE ([…], time 7 day) of 0.4 mg/dL, a Ca ([…], time 7 day) of 10.8 mg/dL and a Cl ([…], time 7 day) of 102.4 meq/L. It also gave a DBIL ([…], time 7 day) of 0.084 mg/dL, a GLC ([…], time 7 day) of 195.6 mg/dL and an IP ([…], time 7 day) of 6.8 mg/dL. It also gave a K ([…], time 7 day) of 3.8 meq/L, an LDH ([…], time 7 day) of 163.8 IU/L and a Na ([…], time 7 day) of 140.6 meq/L. It also gave a PL ([…], time 7 day) of 140.6 mg/dL, an RALB ([…], time 7 day) of 3.3 g/dL and a TBIL ([…], time 7 day) of 0.1 mg/dL. The TC ([…], time 7 day) was 67.8 mg/dL, the TG ([…], time 7 day) was 87.6 mg/dL and the TP ([…], time 7 day) was 5.6 g/dL. The gamma-GTP ([…], time 7 day) was 1.2 IU/L, the A/G ([…], time 14 day) was 1.4 and the ALP ([…], time 14 day) was 818.6 IU/L. The ALT ([…], time 14 day) was 40 IU/L, the AST ([…], time 14 day) was 64.2 IU/L and the BUN ([…], time 14 day) was 15.8 mg/dL. For the same molecule, the CRE ([…], time 14 day) was 0.5 mg/dL, the Ca ([…], time 14 day) was 10.7 mg/dL and the Cl ([…], time 14 day) was 102.4 meq/L. The DBIL ([…], time 14 day) was 0.1 mg/dL, the GLC ([…], time 14 day) was 178 mg/dL and the IP ([…], time 14 day) was 6.8 mg/dL. The K ([…], time 14 day) was 4 meq/L, the LDH ([…], time 14 day) was 162.8 IU/L and the Na ([…], time 14 day) was 140.4 meq/L. For the same molecule, the PL ([…], time 14 day) was 166.8 mg/dL, the RALB ([…], time 14 day) was 3.5 g/dL and the TBIL ([…], time 14 day) was 0.2 mg/dL. It also gave a TC ([…], time 14 day) of 80.8 mg/dL, a TG ([…], time 14 day) of 125 mg/dL and a TP ([…], time 14 day) of 6 g/dL. The gamma-GTP ([…], time 14 day) was 1.6 IU/L, the A/G ([…], time 28 day) was 1.3 and the ALP ([…], time 28 day) was 681.2 IU/L. The ALT ([…], time 28 day) was 35.4 IU/L, the AST ([…], time 28 day) was 62.2 IU/L and the BUN ([…], time 28 day) was 15.4 mg/dL. For the same molecule, the CRE ([…], time 28 day) was 0.5 mg/dL, the Ca ([…], time 28 day) was 10.5 mg/dL and the Cl ([…], time 28 day) was 104.4 meq/L. For the same molecule, the DBIL ([…], time 28 day) was 0.1 mg/dL, the GLC ([…], time 28 day) was 213 mg/dL and the IP ([…], time 28 day) was 6.2 mg/dL. For the same molecule, the K ([…], time 28 day) was 3.7 meq/L, the LDH ([…], time 28 day) was 150.8 IU/L and the Na ([…], time 28 day) was 142 meq/L. For the same molecule, the PL ([…], time 28 day) was 140.6 mg/dL, the RALB ([…], time 28 day) was 3.4 g/dL and the TBIL ([…], time 28 day) was 0.2 mg/dL. It also gave a TC ([…], time 28 day) of 67.2 mg/dL, a TG ([…], time 28 day) of 114.4 mg/dL and a TP ([…], time 28 day) of 5.9 g/dL. It also gave a gamma-GTP ([…], time 28 day) of 0.6 IU/L.

Reference: ChEMBL document CHEMBL3885861, “Open TG-GATES”
